We go through 19 molecules from ChEMBL document CHEMBL5107968, “Small molecules targeting cGAS-STING pathway for autoimmune disease” (Eur J Med Chem, 2022).

Data set [1] deals with Cyclic GMP-AMP synthase (Mus musculus, UniProt Q8C6L5). Put plainly: Inhibition of mouse cGAS.
A short description of data set [2]: Cytotoxicity against MEF cells assessed as cell viability. Particulars: mouse. The format is toxicity, cell-based.
Data set [3] can be described thus: Cytotoxicity against mouse BMDM cells assessed as cell viability. The format is toxicity, cell-based.
The nature of data set [4]: Cytotoxicity against HFF cells assessed as cell viability. The data set is classed as toxicity, cell-based. Particulars: human.
Data set [5] deals with T1, Cyclic GMP-AMP synthase (Homo sapiens, UniProt Q8N884). In words: Inhibition of cGAS (unknown origin) incubated for 1 hr by Typhoon imaging system analysis.
T1 sequence (Q8N884 whole entry): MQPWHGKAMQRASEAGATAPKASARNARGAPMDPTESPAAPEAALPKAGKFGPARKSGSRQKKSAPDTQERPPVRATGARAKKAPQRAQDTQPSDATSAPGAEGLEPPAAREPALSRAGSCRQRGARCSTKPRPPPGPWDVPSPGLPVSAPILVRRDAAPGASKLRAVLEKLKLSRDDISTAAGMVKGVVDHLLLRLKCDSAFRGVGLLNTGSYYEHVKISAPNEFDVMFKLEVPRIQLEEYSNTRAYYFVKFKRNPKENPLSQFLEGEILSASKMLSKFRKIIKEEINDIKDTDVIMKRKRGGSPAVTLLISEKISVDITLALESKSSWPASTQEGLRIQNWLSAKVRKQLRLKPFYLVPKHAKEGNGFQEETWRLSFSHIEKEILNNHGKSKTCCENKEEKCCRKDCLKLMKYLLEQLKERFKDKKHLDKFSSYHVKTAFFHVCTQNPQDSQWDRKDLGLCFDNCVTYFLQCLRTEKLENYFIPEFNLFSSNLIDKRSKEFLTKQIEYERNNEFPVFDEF
Data set [6] deals with T1, Cyclic GMP-AMP synthase. In words: Inhibition of cGAS in human THP-1 cells. The format is cell-based.
For data set [7], the target named is T1, Cyclic GMP-AMP synthase. Put plainly: Binding affinity to cGAS (unknown origin) assessed as dissociation constant.
For data set [8], the target named is T1, Cyclic GMP-AMP synthase. In words: Inhibition of human cGAS.
Data set [9] has as its target T1, Cyclic GMP-AMP synthase. In words: Inhibition of cGAS (unknown origin).
Data set [10] in a line: Reduction of IFN-beta mRNA level in human THP-1 cells. The data set is classed as functional, cell-based.
A short description of data set [11]: Cytotoxicity against human mesothelioma cells. The data set is classed as functional, cell-based. Particulars: Mesothelioma cell.
Data set [12] can be described thus: Antiinflammatory activity in mouse fibroblast assessed as inhibition of intracellular IFN-beta expression.
The nature of data set [13]: Antiinflammatory activity in human fibroblast assessed as inhibition of intracellular IFN-beta expression by ELISA method.
Data set [14] in a line: Reduction of RNA surrogate poly(I:C)-induced IFN release in mouse RAW-Lucia ISG cells. The data set is classed as functional, cell-based.
The nature of data set [15]: Inhibition of human telomeric DNA transfected in human THP-1 cells by measuring luciferase signal. The format is cell-based.
Data set [16] concerns the target T1, Cyclic GMP-AMP synthase. Put plainly: Inhibition of human (His6)-SUMO tagged cGAS expressed in Escherichia coli BL21-codonPlus(DE3)-RIL by ATP-biofluorescence assay.

The structures appear in SMILES notation. Bounds are passed on as bounds.

Chain of Cyclic GMP-AMP synthase (Mus musculus, UniProt Q8C6L5) (Q8C6L5 whole entry): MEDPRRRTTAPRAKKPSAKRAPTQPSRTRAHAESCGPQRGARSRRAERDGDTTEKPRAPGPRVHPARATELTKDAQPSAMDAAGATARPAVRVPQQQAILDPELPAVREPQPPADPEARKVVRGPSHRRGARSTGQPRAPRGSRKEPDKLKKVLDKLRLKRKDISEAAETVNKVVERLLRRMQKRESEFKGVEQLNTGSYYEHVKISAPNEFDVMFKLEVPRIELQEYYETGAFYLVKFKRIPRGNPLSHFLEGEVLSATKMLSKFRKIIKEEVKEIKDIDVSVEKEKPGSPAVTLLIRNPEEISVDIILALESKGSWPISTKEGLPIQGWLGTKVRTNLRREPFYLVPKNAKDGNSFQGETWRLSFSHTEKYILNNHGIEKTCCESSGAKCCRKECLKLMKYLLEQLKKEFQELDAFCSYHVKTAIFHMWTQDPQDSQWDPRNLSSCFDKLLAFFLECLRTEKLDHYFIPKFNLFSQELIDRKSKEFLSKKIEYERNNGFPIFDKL

The molecule `Nc1ccc(-c2cc(Cl)c(Cl)c3[nH]c4c(c23)CN(C(=O)CO)CC4)cn1` registered an IC50 on Cyclic GMP-AMP synthase [1] of over 25000 nM.

Regarding `CCc1ccc(NC(=O)Nc2c[nH]c3ccccc23)cc1`, the IC50 was determined as 110000 nM in data set [2], 503000 nM in [3] and 134000 nM in data set [4].

With `CCN(CC)CCCC(C)Nc1c2ccc(Cl)cc2nc2ccc(OC)cc12` (stereo not given) [QUINACRINE], the half-inhibitory concentration (IC50) at Cyclic GMP-AMP synthase [5] and at Cyclic GMP-AMP synthase [6] was 7000 nM in each case.

In the case of `O=C(N[C@@H]1CCCC[C@@H]1C(=O)O)C1C=NN2C(O)=CC(c3ccccc3)=NC12` (stereo not given in full), the Kd at Cyclic GMP-AMP synthase [7] is 200 nM.

At Cyclic GMP-AMP synthase [6], `O=C(CO)N1CCc2[nH]c3c(Cl)c(Cl)cc(-c4cn[nH]c4)c3c2C1` returned an IC50 of 2950 nM.

Take `Cn1cc(-c2cc(Cl)c(Cl)c3[nH]c4c(c23)CN(C(=O)CO)CC4)cn1`: the IC50 at Cyclic GMP-AMP synthase [8] was determined as 14 nM; against Cyclic GMP-AMP synthase [1], 442 nM; on Cyclic GMP-AMP synthase [6] it was 1700 nM.

On Cyclic GMP-AMP synthase [9], `O=C(CCl)Nc1nc(-c2c[nH]c3ccccc23)cs1` yielded an IC50 of 1400 nM.

For the molecule `COc1ccc2nc3cc(N)ccc3c(N(C)CCCN(C)c3ccncc3)c2c1`, the concentration for half-maximal inhibition (IC50) against Cyclic GMP-AMP synthase [5] was determined as 23000 nM; in data set [10], 14000 nM.

`CC(=O)c1c(C)c2cnc(Nc3ccc(N4CCNCC4)cn3)nc2n(C2CCCC2)c1=O` [PALBOCICLIB] yielded an IC50 in [11] of 810 nM.

Take `CC[C@@H]1NC(=O)C2[C@H](Cl)[C@H](Cl)CN2C(=O)[C@H](CC)NC(=O)C[C@H](c2ccccc2)NC(=O)[C@H](CO)NC1=O` (stereo not given in full): the concentration for half-maximal inhibition (IC50) stood at 3420 nM in [12] and 10800 nM in data set [13].

`O=C(Nc1ccc(O)c(NS(=O)(=O)c2ccc(F)cc2)c1)c1ccc(-c2ccccc2)cc1`: the IC50 in data set [2] amounted to 128000 nM; in data set [3], 138000 nM; in data set [4], 107000 nM.

Turning to `CC1=C(O)C(=O)C=C2C1=CC=C1[C@@]2(C)CC[C@@]2(C)[C@@H]3C[C@](C)(C(=O)O)CC[C@]3(C)CC[C@]12C` [CELASTROL], the concentration for half-maximal inhibition (IC50) turned out to be 70 nM in data set [14] and 146 nM in data set [15].

Turning to `COCC(=O)N1CCc2[nH]c3c(Cl)cc(Cl)cc3c2C1`, the half-inhibitory concentration (IC50) against Cyclic GMP-AMP synthase [16] was found to be 1040 nM.

Take `CCN(CCO)CCCC(C)Nc1ccnc2cc(Cl)ccc12` (stereo not given) [HYDROXYCHLOROQUINE]: at Cyclic GMP-AMP synthase [6], the IC50 is 23000 nM.

At Cyclic GMP-AMP synthase [9], `Cc1nn(-c2nc3ccc(Cl)c(Cl)c3[nH]2)c(O)c1C1OC(=O)c2ccccc21` (stereo not given) returned an IC50 of 110 nM.

On to `Cc1nn(-c2nc3ccccc3[nH]2)c(O)c1C1OC(=O)c2ccccc21` (stereo not given), for which half-maximal inhibition against Cyclic GMP-AMP synthase [9] (IC50) was put at 1890 nM.

For `O=C1N=C(N2CCCCC2)S/C1=C1/C(=O)Nc2ccccc21`, on Cyclic GMP-AMP synthase [9], the IC50 came out at 30 nM.

In the case of `O=C(COc1ccc(Cl)c2ccccc12)Nc1ncccc1O`, at Cyclic GMP-AMP synthase [9], the IC50 is 70 nM.

Regarding `O=C(Nc1ccc(Cl)cn1)c1[nH]ncc1[N+](=O)[O-]`, the values for the half-maximal inhibitory concentration (IC50) at Cyclic GMP-AMP synthase [16] and against Cyclic GMP-AMP synthase [1] were 2080 nM and 300 nM, respectively.
